In brackets after ≈: the same amount, converted by molar mass. Several values for one entry are separate records, joined by “and”; a condition that tells them apart may be missing. Equal entries are not always repeated. Structures can show the parent of a compound that is named as a salt. Where two headings read alike, the source gives them in different places.
What was measured:
HIV-1 (RF) in MT-2 cells = assay: microbe, parasite or virus in culture; type: cell-based; conditions: read-out: IC90
Method in brief: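 HIV-1 laboratory strains (RF, MN, IIIB) grown in H9 cells in RPMI 1640 with 5% FCS; infections in MT-2 cells. Viral RNA quantified by hybridization with biotinylated gag/pol capture probes on streptavidin plates and alkaline phosphatase-conjugated reporter probes; BH10 gag-pol in vitro transcripts serve as RNA standards.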

[1] = biological target: single-chain tethered dimer of HIV protease (Human immunodeficiency virus 1, UniProt P04585); assay: biochemical; type: biochemical; design: fused on or other part: A second copy of the same protease unit is joined to the first by a short peptide tether, giving one polypeptide
[2] = Human immunodeficiency virus 1, MT2, 48 h, Table 2d, class symbols
[3] = read-out: HPLC K1, Table 2d, class symbols
[4] = Human immunodeficiency virus 1, MT2, 48 h, Table 2d, HIV RNA assay
[5] = read-out: HPLC K1, Table 2d, HIV protease inhibition, HPLC method

SMILES	melting point	IC90 (HIV-1 (RF) in MT-2 cells; [2]) [µg/mL]	Ki [1, 3] [nM]	other results
NCC(=O)Nc1cccc(CN2C(=O)N(Cc3cccc(NC(=O)CN)c3)C(Cc3ccccc3)C(O)C(O)C2Cc2ccccc2)c1 (stereo not drawn) (as salt: HCl) [15R]	233.7 °C			
O=C1N(Cc2cccc(NS(=O)(=O)C(F)(F)F)c2)C(Cc2ccccc2)C(O)C(O)C(Cc2ccccc2)N1Cc1cccc(NS(=O)(=O)C(F)(F)F)c1 (stereo not drawn) [15B]	141.8 °C	10 to 100 (≈ 12.5 to 125 µM)	< 10	
COC(=O)c1cccc(CN2C(=O)N(Cc3cccc(-c4cc[nH]n4)c3)C(Cc3ccccc3)C(O)C(O)C2Cc2ccccc2)c1 (stereo not drawn) [Example 15BP]	127 to 130 °C			IC90 (HIV-1 (RF) in MT-2 cells; [4]): < 10 µg/mL; Ki [1, 5]: < 10 nM
CC(C)CCCC(C)CCN1C(=O)N(CCC(C)CCCC(C)C)C(Cc2ccccc2)C(O)C(O)C1Cc1ccccc1 (stereo not drawn) [Example 1P]	80 to 82 °C			
O=C1N(Cc2cccc(CCl)c2)C(Cc2ccccc2)C(O)C(O)C(Cc2ccccc2)N1Cc1cccc(CCl)c1 (stereo not drawn) [Example 9S]	156 to 157 °C	< 10	10 to 1000	
NC(=NO)c1cccc(CN2C(=O)N(Cc3ccc(O)cc3)C(Cc3ccccc3)C(O)C(O)C2Cc2ccccc2)c1 (stereo not drawn) [15AU]	195 to 197 °C			IC90 (HIV-1 (RF) in MT-2 cells; [4]): < 10 µg/mL; Ki [1, 5]: < 10 nM
O=C1N(Cc2cccc(C=NOCc3ccccc3)c2)C(Cc2ccccc2)C(O)C(O)C(Cc2ccccc2)N1Cc1cccc(C=NOCc2ccccc2)c1 (stereo not drawn) [Example 9D]	170.5 to 171 °C	10 to 100 (≈ 12.9 to 129 µM)	10 to 1000	
O=C1N(CC2CC2)C(Cc2ccc([N+](=O)[O-])cc2)C(O)C(O)C(Cc2ccc([N+](=O)[O-])cc2)N1CC1CC1 (stereo not drawn) [Example 20B]	227.5 °C			IC90 (HIV-1 (RF) in MT-2 cells; Human immunodeficiency virus 1, MT2, Table 2i): < 10 µg/mL; Ki ([1]; read-out: HPLC Ki, Table 2i): < 10 nM
O=C1N(Cc2cccc(-c3cc[nH]n3)c2)C(Cc2ccccc2)C(O)C(O)C(Cc2ccccc2)N1Cc1cccc(-c2cc[nH]n2)c1 (stereo not drawn) (as salt: HCl) [Example 15YM]	195 to 197 °C			
O=S1(=O)N(CC2CC2)C(Cc2ccccc2)C(O)C(O)C(Cc2ccccc2)N1CC1CC1 (stereo not drawn) [Example 23F]	71 to 72 °C			IC90 (HIV-1 (RF) in MT-2 cells; Human immunodeficiency virus 1, MT2, Table 2m): < 10 µg/mL; Ki ([1]; read-out: HPLC Ki, Table 2m): < 10 nM
CCN(CC)C(=O)c1cccc(CN2C(=O)N(Cc3cccc(CO)c3)C(Cc3ccccc3)C(O)C(O)C2Cc2ccccc2)c1 (stereo not drawn) [15WJ]	88.9 to 90 °C	< 10	< 10	
O=C1N(Cc2cccc(OCCO)c2)C(Cc2ccccc2)C(O)C(O)C(Cc2ccccc2)N1Cc1cccc(OCCO)c1 (stereo not drawn) (hydrate or solvate) [10Y]	245 to 247 °C			
O=C1NC(Cc2ccccc2)C(O)C(O)C(Cc2ccccc2)N1Cc1ccc(CO)cc1 (stereo not drawn) [Example 11N]	112 to 114 °C	< 10	< 10	
CSc1cccc(CN2C(=O)N(Cc3cccc(SC)c3)C(Cc3ccccc3)C(O)C(O)C2Cc2ccccc2)c1 (stereo not drawn) [Example 12R]	169 °C and 169.3 °C	< 10	< 10	
Nc1cccc(CN2C(=O)N(Cc3cccc(O)c3)C(Cc3ccccc3)C(O)C(O)C2Cc2ccccc2)c1 (stereo not drawn) [11Q]	116 to 120 °C	< 10	< 10	
N#Cc1cc(CN2C(=O)N(Cc3cccc(-c4cc[nH]n4)c3)C(Cc3ccccc3)C(O)C(O)C2Cc2ccccc2)ccc1F (stereo not drawn) [Example 15CF]	118 to 120 °C			IC90 (HIV-1 (RF) in MT-2 cells; [4]): < 10 µg/mL; Ki [1, 5]: < 10 nM
CONC(=O)c1ccc(CN2C(=O)N(Cc3ccc(C(=O)NOC)cc3)C(Cc3ccccc3)C(O)C(O)C2Cc2ccccc2)cc1 (stereo not drawn) [10S]	186 to 189 °C	< 10	< 10	
CC(C)NC(=O)c1cccc(CN2C(=O)N(Cc3cccc(C(=O)O)c3)C(Cc3ccccc3)C(O)C(O)C2Cc2ccccc2)c1 (stereo not drawn) [15WN]	164 to 167 °C	< 10	< 10	
N#CN=C1N(Cc2cccc([N+](=O)[O-])c2)[C@H](Cc2ccccc2)[C@H](O)[C@@H](O)[C@@H](Cc2ccccc2)N1Cc1cccc([N+](=O)[O-])c1	114 °C			
O=C1N(Cc2cccc(-c3cnc[nH]3)c2)C(Cc2ccccc2)C(O)C(O)C(Cc2ccccc2)N1Cc1cccc(-c2cnc[nH]2)c1 (stereo not drawn) [Example 15BK]	171 to 175 °C			IC90 (HIV-1 (RF) in MT-2 cells; [4]): < 10 µg/mL; Ki [1, 5]: < 10 nM
CNc1cccc(CN2C(=O)N(Cc3ccc(CO)cc3)C(Cc3ccccc3)C(O)C(O)C2Cc2ccccc2)c1 (stereo not drawn) (as salt: HCl) [15M]	107.6 °C			
CNC(=O)Nc1cccc(CN2C(=O)N(Cc3cccc(NC(=O)NC)c3)C(Cc3ccccc3)C(O)C(O)C2Cc2ccccc2)c1 (stereo not drawn) [15L]	173.7 °C		< 10	
Nc1cccc(CN2C(=O)N(CC3CC3)C(Cc3ccccc3)C(O)C(O)C2Cc2ccccc2)c1 (stereo not drawn) (as salt: HCl) [15G]	108.9 °C			

Reference: patent USRE37781E1, “Substituted cyclic carbonyls and derivatives thereof useful as retroviral protease inhibitors” (DuPont Pharmaceuticals Company, priority 1991, dated 2002)
